EC50 data for 16 molecules are collected here from US9505752B2, “Piperidine amide derivatives as HIV attachment inhibitors” (priority 2012, dated 2016).

What is called EC50 is the midpoint of the concentration-response curve.

Where two headings read alike, the source gives them in different places.

The assay concerns HIV-1 LAI envelope single-round infectious reporter virus. Briefly: Single-round infectious luciferase reporter virus (HIV-1 LAI envelope) infection of MT2 cells. Type of assay: cell-based. The note with it: Human immunodeficiency virus 1, MT2, 72 h. The source says: • Virus production—Human embryonic Kidney cell line, 293T (HEK 293T), was propagated in Dulbecco's Modified Eagle Medium (Invitrogen, Carlsbad, Calif.) containing 10% fetal bovine serum (FBS, Sigma, St. Louis, Mo.). The human T-cell leukemia cell MT2 (AIDS Research and Reference Reagent Program, Cat. 237) was propagated in RPMI 1640 (Invitrogen, Carlsbad, Calif.) containing 10% fetal bovine serum (FBS, Hyclone, Logan, Utah) • Virus infection—Single-round infectious reporter virus was produced by co-transfecting HEK 293T cells with plasmide expressing the HIV-1 LAI envelope along with a plasmid containing an HIV-1 LAI proviral cDNA with the envelope gene replaced by a firefly luciferase reporter gene (Chen et al., Ref 41). Transfections were performed using lipofectAMINE PLUS reagent as described by the manufacturer (Invitrogen, Carlsbad, Calif.). Experimental Procedure • 1. MT2 cells were plated in black, 384 well plates at a cell density of 5×10^3 cells per well in 25 μl RPMI 1640 containing 10% FBS. • 2. Compound (diluted in dimethylsulfoxide and growth medium) was added to cells at 12.5 μl/well, so that the final assay concentration would be ≦50 nM. • 3. 12.5 μl of single-round infectious reporter virus in Dulbecco's Modified Eagle Medium was added to the plated cells and compound at an approximate multiplicity of infection (MOI) of 0.01, resulting in a final volume of 50 μl per well. • 4. Virus-infected cells were incubated at 37 degrees Celsius in a CO2 incubator and harvested 72 h after infection. • 5. Viral infection was monitored by measuring luciferase expression in the infected cells using a luciferase reporter gene assay kit (Steady-Glo, Promega, Madison, Wis.) as described by the manufacturer. Luciferase activity was then quantified by measuring luminescence using an EnVision Multilabel Plate Readers (PerkinElmer, Waltham, Mass.). • 6. The percent inhibition for each compound was calculated by quantifying the level of luciferase expression in cells infected in the presence of each compound as a percentage of that observed for cells infected in the absence of compound and subtracting such a determined value from 100. • 7. An EC50 provides a method for comparing the antiviral potency of the compounds of this invention. The effective concentration for fifty percent inhibition (EC50) was calculated with the Microsoft Excel Xlfit curve fitting software. For each compound, curves were generated from percent inhibition calculated at 10 different concentrations by using a four parameter logistic model (model 205). Table 1 is the key for the data in Table 2.

[1] abbreviates: read-out: EC50 Group from Table 1.

Consider `Cn1ccnc1C(c1ccccc1)C1CCN(C(=O)C(=O)c2c[nH]c3c(-n4ccnn4)ncc(F)c23)CC1` (centres unmarked) [Compound 2006, 1-(4-fluoro-7-(1H-1,2,3-triazol-1-yl)-1H-pyrrolo[2,3-c]pyridin-3-yl)-2-(4-((1-methyl-1H-imidazol-2-yl)(phenyl)methyl)piperidin-1-yl)ethane-1,2-dione], for which, under setting [1], the EC50 was under 500 nM.

With `C=C(c1ccccc1)C1CCN(C(=O)C(=O)c2c[nH]c3ccccc23)CC1` [Compound 1004], the concentration for a half-maximal effect (EC50) under setting [1] is over 500 nM.

Turning to `COc1ncc(OC)c2c(C(=O)C(=O)N3CCC4(CC3)CC4(C#N)c3ccccc3)c[nH]c12` (centres unmarked) [Compound 2001, 6-(2-(4,7-dimethoxy-1H-pyrrolo[2,3-c]pyridin-3-yl)-2-oxoacetyl)-1-phenyl-6-azaspiro[2.5]octane-1-carbonitrile], the EC50 under setting [1] was under 500 nM.

`N#CC1(c2ccccc2)CC12CCN(C(=O)C(=O)c1c[nH]c3c(-n4ccnn4)ncc(F)c13)CC2` (centres unmarked) [Compound 2002, 6-(2-(4-fluoro-7-(1H-1,2,3-triazol-1-yl)-1H-pyrrolo[2,3-c]pyridin-3-yl)-2-oxoacetyl)-1-phenyl-6-azaspiro[2.5]octane-1-carbonitrile]: under setting [1], the concentration giving a half-maximal response (EC50) is under 500 nM.

`O=C(C(=O)N1CCC(C(=O)c2ccccc2)CC1)c1c[nH]c2ccccc12` [Compound 1001]: a half-maximal response (EC50) required 3490 nM. For the same molecule, the EC50 under setting [1] was over 500 nM.

Regarding `COc1cnc(-n2cnc(C)n2)c2[nH]cc(C(=O)C(=O)N3CCC(C(c4ccccc4)c4nccn4C)CC3)c12` (centres unmarked) [Compound 2007, 1-(4-methoxy-7-(3-methyl-1H-1,2,4-triazol-1-yl)-1H-pyrrolo[2,3-c]pyridin-3-yl)-2-(4-((1-methyl-1H-imidazol-2-yl)(phenyl)methyl)piperidin-1-yl)ethane-1,2-dione], the concentration giving a half-maximal response (EC50) under setting [1] was under 500 nM.

In the case of `COc1cnc(-n2ccnn2)c2[nH]cc(C(=O)C(=O)N3CCC4(CC3)CC4(c3ccccc3)c3nnc(C)o3)c12` (centres unmarked) [Compound 1005], the EC50 is 0.75 nM. Moreover, the EC50 under setting [1] is under 500 nM.

As for `O=C(C(=O)N1CCC(Cc2ccccc2)CC1)c1c[nH]c2c(-n3ccnn3)ncc(F)c12` [Compound 1006], the EC50 under setting [1] was under 500 nM.

`C/C=C(\c1ccccc1)C1CCN(C(=O)C(=O)c2c[nH]c3ccccc23)CC1` [Compound 1003]: the concentration for a half-maximal effect (EC50) under setting [1] is over 500 nM.

`COc1cnc(-n2cnc(C)n2)c2[nH]cc(C(=O)C(=O)N3CCC(C(C#N)c4ccccc4)CC3)c12` (centres unmarked) [Compound 1009]: the 50% effective concentration (EC50) under setting [1] was under 500 nM.

As to `CC(C)=C(c1ccccc1)C1CCN(C(=O)C(=O)c2c[nH]c3ccccc23)CC1` [Compound 1002], the EC50 under setting [1] was over 500 nM.

The molecule `COc1cnc(-n2cnc(C)n2)c2[nH]cc(C(=O)C(=O)N3CCC4(CC3)CC4(C#N)c3ccccc3)c12` (centres unmarked) [Compound 2003, 6-(2-(4-methoxy-7-(3-methyl-1H-1,2,4-triazol-1-yl)-1H-pyrrolo[2,3-c]pyridin-3-yl)-2-oxoacetyl)-1-phenyl-6-azaspiro[2.5]octane-1-carbonitrile] had an EC50 of 2.52 nM. Further, the EC50 under setting [1] is under 500 nM.

Turning to `COc1cnc(-n2cnc(C)n2)c2[nH]cc(C(=O)C(=O)N3CCC(C(O)(c4ccccc4)c4nccn4C)CC3)c12` (centres unmarked) [Compound 2005, 1-(4-(hydroxy(1-methyl-1H-imidazol-2-yl)(phenyl)methyl)piperidin-1-yl)-2-(4-methoxy-7-(3-methyl-1H-1,2,4-triazol-1-yl)-1H-pyrrolo[2,3-c]pyridin-3-yl)ethane-1,2-dione], under setting [1], the EC50 is under 500 nM.

For the molecule `Cn1ccnc1C(O)(c1ccccc1)C1CCN(C(=O)C(=O)c2c[nH]c3c(-n4ccnn4)ncc(F)c23)CC1` (centres unmarked) [Compound 2004, 1-(4-fluoro-7-(1H-1,2,3-triazol-1-yl)-1H-pyrrolo[2,3-c]pyridin-3-yl)-2-(4-(hydroxy(1-methyl-1H-imidazol-2-yl)(phenyl)methyl)piperidin-1-yl)ethane-1,2-dione], the EC50 under setting [1] was under 500 nM.

Regarding `O=C(C(=O)N1CCC(C(O)(c2ccccc2)c2ccccc2)CC1)c1c[nH]c2c(-n3ccnn3)ncc(F)c12` [Compound 1007], the 50% effective concentration (EC50) under setting [1] was under 500 nM.

`N#CC(c1ccccc1)C1CCN(C(=O)C(=O)c2c[nH]c3c(-n4ccnn4)ncc(F)c23)CC1` (centres unmarked) [Compound 1008] showed a concentration giving a half-maximal response (EC50) of 0.2 nM. Moreover, under setting [1], the concentration for a half-maximal effect (EC50) is under 500 nM.
